ChEMBL document CHEMBL4316625, “Double prodrugs of a fosmidomycin surrogate as antimalarial and antitubercular agents” (Bioorg Med Chem Lett, 2019)
pIC50: −log10 of the molar value. Values after ≈ are worked out from the molar mass of the structure shown.

Tests used:
[1] = Cytotoxicity in human MRC5 cells assessed as reduction in cell viability incubated for 24 hrs by resazurin-based cytotoxicity assay
[2] = tested on: Mycobacterium tuberculosis; assay: Antitubercular activity against Mycobacterium tuberculosis H37Rv reduction in bacterial multiplication incubated for 7 days by luminometric assay; format: functional; settings: 168 h
Plasmodium falciparum = assay: Antiplasmodial activity against Plasmodium falciparum K1 infected in human erythrocytes assessed as reduction in parasite multiplication incubated for 72 hrs by Malstat method; format: functional, organism-based; settings: K1, 72 h
[3] = Oral bioavailability in healthy human at 500 mg; format: ADME, organism-based; settings: in vivo

Compound | CC50 at 24 h [1] | MIC [2] | pIC50 (Plasmodium falciparum) | bioavailability [3]
CCCCCCCCC(=O)ON(C)C(=O)CCCP(=O)(OCOC(=O)C(C)(C)C)OCOC(=O)C(C)(C)C | > 64 µM | 50 µM (≈ 28.3 µg/mL) | 5.85 | 
CN(OCc1ccc([N+](=O)[O-])o1)C(=O)CCCP(=O)(OCOC(=O)C(C)(C)C)OCOC(=O)C(C)(C)C | 26.3 µM | 12.5 µM (≈ 6.88 µg/mL) | 5.35 | 
CC(=O)ON(C)C(=O)CCCP(=O)(OCOC(=O)C(C)(C)C)OCOC(=O)C(C)(C)C | > 64 µM |  | 5.87 | 
CN(OCc1ccc([N+](=O)[O-])cc1)C(=O)CCCP(=O)(OCOC(=O)C(C)(C)C)OCOC(=O)C(C)(C)C | 26.5 µM | > 50 µM | 5.06 | 
CN(OCc1ccc([N+](=O)[O-])s1)C(=O)CCCP(=O)(OCOC(=O)C(C)(C)C)OCOC(=O)C(C)(C)C | 20.5 µM | 12.5 µM (≈ 7.08 µg/mL) | 5.33 | 
O=CN(O)CCCP(=O)([O-])O.[Na+] [FOSMIDOMYCIN SODIUM] | > 64 µM | > 64 µM |  | 20 to 40%
CN(OC(=O)NCc1ccccc1)C(=O)CCCP(=O)(OCOC(=O)C(C)(C)C)OCOC(=O)C(C)(C)C | 27.9 µM | > 50 µM | 6.19 | 
CN(OC(=O)Nc1ccccc1)C(=O)CCCP(=O)(OCOC(=O)C(C)(C)C)OCOC(=O)C(C)(C)C | 33.4 µM |  | 5.48 | 
CCCCCCCCC(=O)Oc1ccc(CON(C)C(=O)CCCP(=O)(OCOC(=O)C(C)(C)C)OCOC(=O)C(C)(C)C)cc1 | > 64 µM | 50 µM (≈ 33.6 µg/mL) | 4.72 | 
CN(OC(=O)c1ccccc1)C(=O)CCCP(=O)(OCOC(=O)C(C)(C)C)OCOC(=O)C(C)(C)C | > 64 µM | 50 µM (≈ 26.5 µg/mL) | 5.97 | 
CCNC(=O)ON(C)C(=O)CCCP(=O)(OCOC(=O)C(C)(C)C)OCOC(=O)C(C)(C)C | 25.9 µM | > 50 µM | 5.60 | 
CN(O)C(=O)CCCP(=O)(OCOC(=O)C(C)(C)C)OCOC(=O)C(C)(C)C | > 64 µM | > 50 µM |  | 
CN(OC(=O)OCc1ccccc1)C(=O)CCCP(=O)(OCOC(=O)C(C)(C)C)OCOC(=O)C(C)(C)C | > 42 µM | > 50 µM | < 4.44 | 
